Data reported in US9566254B2, “Inhibitors and methods of inhibiting bacterial and viral pathogens” (priority 2010, dated 2017).
Where two headings read alike, the source gives them in different places.

How the values were obtained:
Assay in all cases: microbe, parasite or virus in culture
Type in all cases: cell-based
Chlamydophila caviae = conditions: read-out: Avg Activity (C. Caviae)
influenza virus = conditions: unidentified influenza virus, A549, read-out: Misc Activity: Influenza
vaccinia virus = conditions: read-out: Avg Activity (VV)
La Crosse virus (LACV) = conditions: read-out: Avg Activity (LACV)

Row | Molecule | EC50 (Chlamydophila caviae; Chlamydia caviae, Vero) [nM] | EC50 (influenza virus) [nM] | EC50 (vaccinia virus; Orthopoxvirus vaccinia) [nM] | EC50 (La Crosse virus (LACV); La Crosse virus, Vero) [nM] | EC50 (Chlamydophila caviae) [nM] | EC50 (vaccinia virus) [nM] | EC50 (La Crosse virus (LACV)) [nM]
1 | COc1cc(NC(=S)NC(=O)c2ccc(C(C)(C)C)cc2)ccc1N [Compound 1, N-[(4-amino-3-methoxy-phenyl)carbamothioyl]-4-tert-butyl-benzamide] | < 1000 | < 1000 | < 1000 | < 1000 | – | – | –
2 | CC(C)(C)c1ccc(C(=O)NC(=S)Nc2ccc(NC(=O)c3ccccc3)cc2)cc1 [Compound 43, N-[(4-benzamidophenyl)-carbamothioyl]-4-tert-butyl-benzamide] | < 1000 | – | < 1000 | < 1000 | – | – | –
3 | CC(C)(C)c1ccc(C(=O)NC(=S)Nc2cc(C(F)(F)F)ccc2Cl)cc1 [Compound 44, 4-tert-butyl-N-[[2-chloro-5-(trifluoromethyl)phenyl]-carbamothioyl]benzamide] | < 1000 | – | < 1000 | < 1000 | – | – | –
4 | CC(C)(C)c1ccc(C(=O)NC(=S)Nc2cc(C(C)(C)C)ccc2O)cc1 [Compound 46, 4-tert-butyl-N-[(5-tert-butyl-2-hydroxy-phenyl)-carbamothioyl]benzamide] | < 1000 | – | < 1000 | 1000 to 10000 | – | – | –
5 | Cc1c(Cl)cccc1NC(=S)NC(=O)c1ccc(C(C)(C)C)cc1 [Compound 47, 4-tert-butyl-N-[(3-chloro-2-methyl-phenyl)-carbamothioyl]benzamide] | < 1000 | – | 1000 to 10000 | < 1000 | – | – | –
6 | CC(C)(C)c1ccc(C(=O)NC(=S)Nc2cc(Cl)ccc2Cl)cc1 [Compound 50, 4-tert-butyl-N-[(2,5-dichlorophenyl)-carbamothioyl]benzamide] | < 1000 | – | 1000 to 10000 | 1000 to 10000 | – | – | –
7 | COc1ccccc1NC(=S)NC(=O)c1ccc(C(C)(C)C)cc1 [Compound 51, 4-tert-butyl-N-[(2-methoxyphenyl)-carbamothioyl]benzamide] | < 1000 | – | 1000 to 10000 | 1000 to 10000 | – | – | –
8 | CC(C)(C)c1ccc(C(=O)NC(=S)Nc2cccc(Cl)c2)cc1 [Compound 52, 4-tert-butyl-N-[(3-chlorophenyl)-carbamothioyl]benzamide] | < 1000 | – | 1000 to 10000 | 1000 to 10000 | – | – | –
9 | CC(C)(C)c1ccc(C(=O)NC(=S)Nc2ccccc2)cc1 [Compound 53, 4-tert-butyl-N-(phenylcarbamothioyl)-benzamide] | < 1000 | – | 1000 to 10000 | 1000 to 10000 | – | – | –
10 | Cc1cccc(NC(=S)NC(=O)c2ccc(C(C)(C)C)cc2)c1C [Compound 54, 4-tert-butyl-N-[(2,3-dimethylphenyl)-carbamothioyl]benzamide] | < 1000 | – | 1000 to 10000 | 1000 to 10000 | – | – | –
11 | Cc1ccc(NC(=S)NC(=O)c2ccc(C(C)(C)C)cc2)cc1C [Compound 55, 4-tert-butyl-N-[(3,4-dimethylphenyl)-carbamothioyl]benzamide] | < 1000 | – | 1000 to 10000 | 1000 to 10000 | – | – | –
12 | CCOc1ccccc1NC(=S)NC(=O)c1ccc(C(C)(C)C)cc1 [Compound 56, 4-tert-butyl-N-[(2-ethoxyphenyl)-carbamothioyl]benzamide] | < 1000 | – | 1000 to 10000 | 1000 to 10000 | – | – | –
13 | CC(C)C(=O)Nc1cccc(NC(=S)NC(=O)c2ccc(C(C)(C)C)cc2)c1 [Compound 57, 4-tert-butyl-N-[[3-(2-methylpropanoylamino)-phenyl]carbamothioyl]-benzamide] | < 1000 | – | 1000 to 10000 | 1000 to 10000 | – | – | –
14 | CC(C)(C)c1ccc(C(=O)NC(=S)Nc2ccccc2[N+](=O)[O-])cc1 [Compound 58, 4-tert-butyl-N-[(2-nitrophenyl)carbamothioyl]-benzamide] | < 1000 | – | 1000 to 10000 | 1000 to 10000 | – | – | –
15 | Cc1ccc(NC(=S)NC(=O)c2ccc(C(C)(C)C)cc2)cc1 [Compound 59, 4-tert-butyl-N-(p-tolylcarbamothioyl)-benzamide] | < 1000 | – | 1000 to 10000 | 1000 to 10000 | – | – | –
16 | CC(C)(C)c1ccc(C(=O)NC(=S)Nc2ccc(N)cc2)cc1 [Compound 60, N-[(4-aminophenyl)-carbamothioyl]-4-tert-butyl-benzamide] | < 1000 | – | 1000 to 10000 | 1000 to 10000 | – | – | –
17 | CC(C)(C)c1ccc(C(=O)NC(=S)Nc2ccccc2F)cc1 [Compound 61, 4-tert-butyl-N-[(2-fluorophenyl)carbamothioyl]-benzamide] | 1000 to 10000 | – | 1000 to 10000 | 1000 to 10000 | – | – | –
18 | CCC(=O)Nc1cccc(NC(=S)NC(=O)c2ccc(C(C)(C)C)cc2)c1 [Compound 62, 4-tert-butyl-N-[[3-(propanoylamino)phenyl]-carbamothioyl]benzamide] | 1000 to 10000 | – | 1000 to 10000 | 1000 to 10000 | – | – | –
19 | Cc1cccc(NC(=S)NC(=O)c2ccc(C(C)(C)C)cc2)c1 [Compound 63, 4-tert-butyl-N-(m-tolylcarbamothioyl)-benzamide] | 1000 to 10000 | – | 1000 to 10000 | 1000 to 10000 | – | – | –
20 | CC(C)(C)c1ccc(C(=O)NC(=S)NC2CCCCC2)cc1 [Compound 64, 4-tert-butyl-N-(cyclohexyl-carbamothioyl)benzamide] | 1000 to 10000 | – | 1000 to 10000 | 1000 to 10000 | – | – | –
21 | Cc1cc(C)cc(NC(=S)NC(=O)c2ccc(C(C)(C)C)cc2)c1 [Compound 65, 4-tert-butyl-N-[(3,5-dimethylphenyl)-carbamothioyl]benzamide] | 1000 to 10000 | – | 1000 to 10000 | 1000 to 10000 | – | – | –
22 | COc1cccc(NC(=S)NC(=O)c2ccc(C(C)(C)C)cc2)c1 [Compound 66, 4-tert-butyl-N-[(3-methoxyphenyl)-carbamothioyl]benzamide] | < 1000 | – | 1000 to 10000 | > 25000 | – | – | –
23 | Cc1ccc(C)c(NC(=S)NC(=O)c2ccc(C(C)(C)C)cc2)c1 [Compound 67, 4-tert-butyl-N-[(2,5-dimethylphenyl)-carbamothioyl]benzamide] | < 1000 | – | 1000 to 10000 | > 25000 | – | – | –
24 | COc1ccc(NC(=S)NC(=O)c2ccc(C(C)(C)C)cc2)cc1 [Compound 68, 4-tert-butyl-N-[(4-methoxyphenyl)-carbamothioyl]benzamide] | 1000 to 10000 | – | 1000 to 10000 | > 25000 | – | – | –
25 | CC(C)(C)c1ccc(C(=O)NC(=S)Nc2ccc([N+](=O)[O-])cc2)cc1 [Compound 69, 4-tert-butyl-N-[(4-nitrophenyl)-carbamothioyl]benzamide] | > 25000 | – | 1000 to 10000 | > 25000 | – | – | –
26 | Cc1cccc(C)c1NC(=S)NC(=O)c1ccc(C(C)(C)C)cc1 [Compound 71, 4-tert-butyl-N-[(2,6-dimethylphenyl)-carbamothioyl]benzamide] | < 1000 | – | 10000 to 25000 | > 25000 | – | – | –
27 | Cc1sc(NC(=S)NC(=O)c2ccc(C(C)(C)C)cc2)c(C#N)c1C [Compound 72, 4-tert-butyl-N-[(3-cyano-4,5-dimethyl-2-thienyl)-carbamothioyl]benzamide] | 10000 to 25000 | – | 10000 to 25000 | > 25000 | – | – | –
28 | CCNC(=S)NC(=O)c1ccc(C(C)(C)C)cc1 [Compound 73, 4-tert-butyl-N-(ethylcarbamothioyl)-benzamide] | > 25000 | – | 10000 to 25000 | > 25000 | – | – | –
29 | N-[3-[(4-tert-butylbenzoyl)-carbamothioylamino]phenyl]-2-chloro-benzamide [Compound 74] | – | – | – | – | > 25000 | > 25000 | 1000 to 10000
